The text below walks through data of patent publication US20200316062A1, “COMBINATIONS COMPRISING HISTONE DEACETYLASE INHIBITORS” (Karus Therapeutics Limited, priority 2016, published 2020).

The IC50 is the concentration that gives 50% inhibition.

Series [1] is described as follows: Clinical signs and weight in the tumour growth delay study.
Text: (§1) Male SCID mice were subcutaneously implanted with RPM18226 multiple myeloma cells. Once tumours were established (volume of ˜130 mm) treatment was commenced.
(§2) Animals were housed in IVC cages (5 per cage) with individual mice identified by tail mark. All animals were allowed free access to a standard certified commercial diet and sanitised water during the study.
(§3) RPMI cells (1×10^7 in matrigel) were implanted subcutaneously into the rear dorsum of male SCID mice using a 25-gauge needle. When tumours were 100-150 mm^3 animals were randomly assigned to treatment groups.
In series [2] the test system is RPMI8226 tumours. Kind of series: Tumour growth delay study in male SCID mice bearing RPMI8226 tumours. The format is in vivo.
Text: as §1, §2, §3
The target of series [3] is T1, Recombinant human HDAC6 (Homo sapiens, UniProt Q9UBN7).
T1 construct: full length, MW=159 kDa; GST (N); made in house; host or cells: Sf9 insect cells (baculovirus)
T1 sequence (Q9UBN7 1-1215): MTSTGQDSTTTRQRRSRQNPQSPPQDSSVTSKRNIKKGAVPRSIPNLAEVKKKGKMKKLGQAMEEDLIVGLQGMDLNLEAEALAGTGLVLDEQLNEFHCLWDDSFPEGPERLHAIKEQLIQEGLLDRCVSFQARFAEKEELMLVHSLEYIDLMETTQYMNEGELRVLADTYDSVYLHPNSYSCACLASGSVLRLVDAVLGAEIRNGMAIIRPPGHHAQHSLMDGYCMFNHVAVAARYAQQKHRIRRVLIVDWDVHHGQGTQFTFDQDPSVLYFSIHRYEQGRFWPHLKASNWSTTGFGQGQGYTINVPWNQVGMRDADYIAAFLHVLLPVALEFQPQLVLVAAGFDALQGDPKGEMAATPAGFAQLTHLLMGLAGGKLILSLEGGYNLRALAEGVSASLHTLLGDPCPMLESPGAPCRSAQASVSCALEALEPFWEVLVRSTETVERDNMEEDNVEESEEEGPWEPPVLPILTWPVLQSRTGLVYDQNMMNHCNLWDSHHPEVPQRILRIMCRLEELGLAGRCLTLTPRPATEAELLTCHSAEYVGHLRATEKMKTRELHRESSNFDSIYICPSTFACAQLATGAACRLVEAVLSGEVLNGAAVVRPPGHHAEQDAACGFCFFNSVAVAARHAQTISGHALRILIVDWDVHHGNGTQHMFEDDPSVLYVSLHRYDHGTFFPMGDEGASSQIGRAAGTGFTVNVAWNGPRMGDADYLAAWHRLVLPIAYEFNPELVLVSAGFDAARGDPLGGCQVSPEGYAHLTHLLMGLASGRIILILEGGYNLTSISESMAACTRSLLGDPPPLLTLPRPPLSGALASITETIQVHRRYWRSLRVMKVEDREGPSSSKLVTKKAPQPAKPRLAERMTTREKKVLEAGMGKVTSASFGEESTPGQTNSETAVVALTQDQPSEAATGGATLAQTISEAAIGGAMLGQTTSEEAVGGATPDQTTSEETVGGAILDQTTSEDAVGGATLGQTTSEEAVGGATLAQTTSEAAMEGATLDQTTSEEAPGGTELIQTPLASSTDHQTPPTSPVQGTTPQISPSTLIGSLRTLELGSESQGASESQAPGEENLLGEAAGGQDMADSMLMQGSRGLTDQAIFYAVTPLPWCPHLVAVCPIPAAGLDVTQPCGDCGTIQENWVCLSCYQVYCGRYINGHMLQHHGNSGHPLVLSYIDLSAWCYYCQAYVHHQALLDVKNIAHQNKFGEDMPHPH
Kind of series: HDAC biochemical assay, acetylated AMC-labeled peptide substrate. As to conditions: read-out: IC50 (nM) HDAC 6.
Experimental: Activity against all zinc-dependent HDACs 1 to 11 was assessed by using an acetylated AMC-labeled peptide substrate. The substrate RHKK(Ac)AMC was used for HDAC1, 2, 3, 6, 10 and 11; for HDAC8, the substrate used was RHKAcKAc. […] All assays were based on the AMC-labeled substrate and developer combination.
(§4) The protocol involved a two-step reaction: first, the substrate with the acetylated lysine side chain is incubated with a sample containing HDAC activity, to produce the deacetylated products, which are then digested in the second step by the addition of developer to produce the fluorescent signal proportional to the amount of deacetylated substrates.
Recombinant human HDAC6 (GenBank Accession No. BC069243), full length, MW=159 kDa, was expressed by baculovirus in Sf9 insect cells using an N-terminal GST tag.
(§5) Before use, 1 mg/mL BSA and DMSO are added.
Incubate for 2 hours at 30° C.
HDAC6: 0.3 ng/ul HDAC6 and 50 μM HDAC substrate are in the reaction buffer with 1% DMSO final. Incubate for 1 hours at 30° C.
(§6) Stage 1: Deacetylation of substrate by incubation of HDAC enzymes with compounds
(§7) Stage 2: Development by addition of Developer to digest the deacetylated substrate, and generate the fluorescent color; Detection: 360/460 Ex/Em

In series [4] the target is T2, Human HDAC1 (Homo sapiens, UniProt Q13547).
T2 construct: full length with C-terminal His-tag and C-terminal FLAG-tag; His-tag (C); FLAG-tag (C); made in house
The description is as above. As to conditions: read-out: IC50 (nM) HDAC 1.
Experimental: Activity against all zinc-dependent HDACs 1 to 11 was assessed by using an acetylated AMC-labeled peptide substrate. […] All assays were based on the AMC-labeled substrate and developer combination.
as §4
Human HDAC1 (GenBank Accession No. NM_004964), full length with C-terminal His-tag and C-terminal FLAG-tag, MW=56 kDa, expressed in baculovirus expression system.
as §5
Incubate for 2 hours at 30° C.
HDAC1: 0.3 ng/ul HDAC1 and 50 μM HDAC substrate are in the reaction buffer with 1% DMSO final. Incubate for 1 hour at 30° C.
as §6, §7

The test system of series [5] is PD-L1-expressing HT29 colorectal adenocarcinoma cells, primary stromal fibroblasts and PBMCs. Kind of series: Tumour microenvironment (TME) model system, study KRS018-01-b (DiscoverX). The format is cell-based. As to conditions: 2.5 to 10 μM; SAg stimulation 48 h; dose-dependent. The method, then:
Test compounds dissolved in DMSO were profiled in a commercially-available tumour microenvironment (TME) model system consisting of PD-L1-expressing HT29 colorectal adenocarcinoma cells, primary stromal fibroblasts and PBMCs in which immune cel responses are suppressed by the presence of the cancer cells. Co-cultured cells were exposed to 2.5, 5, 10, 20 μM of test compound or DMSO as a control and stimulated with SAg for 48 h. The activity profile in the co-culture system was determined using ELISA endpoint assays to detect modulation of protein markers relevant to immune tolerance, inflammation, angiogenesis and matrix remodelling, and sulforhodamine B (SRB) and alamar blue assays to measure the viability of adherent colorectal adenocarcinoma cells and fibroblasts, and PBMCs, respectively.

In series [6] the test system is acetylated tubulin. The series is described as follows: Western blot analysis of tumour tissue. The series is classed as in vivo, male SCID mice. As to conditions: tumour tissue removed from treated animals.
[7] abbreviates: Group 2: Bortezomib 0.5 mg/kg i.v. twice weekly.

T2 sequence (Q13547 whole entry): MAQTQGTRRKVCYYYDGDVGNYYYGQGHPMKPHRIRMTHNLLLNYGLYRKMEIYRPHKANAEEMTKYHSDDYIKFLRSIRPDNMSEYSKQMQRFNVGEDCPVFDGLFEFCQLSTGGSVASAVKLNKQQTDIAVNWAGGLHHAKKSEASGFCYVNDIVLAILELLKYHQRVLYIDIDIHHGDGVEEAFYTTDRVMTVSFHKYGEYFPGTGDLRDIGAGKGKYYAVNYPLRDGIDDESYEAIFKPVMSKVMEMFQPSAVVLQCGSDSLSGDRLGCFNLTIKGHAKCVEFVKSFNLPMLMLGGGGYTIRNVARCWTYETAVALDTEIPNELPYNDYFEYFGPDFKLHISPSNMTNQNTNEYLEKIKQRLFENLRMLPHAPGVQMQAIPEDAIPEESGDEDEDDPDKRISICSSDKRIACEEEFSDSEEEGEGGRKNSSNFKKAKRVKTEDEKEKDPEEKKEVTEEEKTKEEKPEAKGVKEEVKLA

`CC(C)C[C@H](NC(=O)[C@H](Cc1ccccc1)NC(=O)c1cnccn1)B(O)O` [Bortezomib]: in series [1] (setting [7]), the “Group mean at day 26 (weight, clinical signs)” value was found to be 98.5. Moreover, in series [2] (setting [7]), the “% T/C value versus vehicle” value turned out to be 67.8% and the Mean tumour volume, Group mean at day 19 came out at 984 mm³.
`O=C(NO)c1ccc(CN(c2cnccn2)c2cc(-c3ccncc3)ccn2)cc1` [Example UU, 4-[({[4,4′-bipyridine]-2-yl}(pyrazin-2-yl)amino)methyl]-N-hydroxybenzamide]: the results for the 50% inhibitory concentration (IC50) in series [3] and in series [4] were not above 500 nM and 1000 to 10000 nM, respectively.
Turning to `O=C(NO)c1ccc(CN(c2cnccn2)c2cnccn2)cc1` [Example GG, 4-{[Bis(pyrazin-2-yl)amino]methyl}-N-hydroxybenzamide], the “weight change during the study” value in series [1] (bortezomib combinations) is “no significant weight change”. In addition, in series [2] (Group 4 and 5 (with bortezomib), after 8 days of treatment), the control of tumour entry is on record as “significant control of tumour”. Further, the “levels of secreted granzyme-B, IFNγ, IL-10, IL-17A, IL-2, IL-6 and TNFα” value in series [5] is “increased”. For the same compound, the “expression of acetylated tubulin in tumour tissue” value in series [6] is recorded as “increased expression”.
As for `CNc1cc(-c2ccnc(N(Cc3ccc(C(=O)NO)cc3)c3cnccn3)c2)ccn1` [Example TT, N-hydroxy-4-({[2′-(methylamino)-[4,4′-bipyridine]-2-yl](pyrazin-2-yl)amino}methyl)benzamide], the half-maximal inhibitory concentration (IC50) in series [3] is not above 500 nM; in series [4], 1000 to 10000 nM.
